Measured values taken from US9060520B2, “Domestic animal parasite-repellent device” (priority 2007, dated 2015).

Experiment: Release kinetics at 38° C. in oven, by daily weighing (Examples 5-8, 10, 11)
Assay type: physicochemical

Row | Compound | release as of the fourth day (EVA object with DIAZINON and GIN3, for the remaining 70%) [% per day] | amount released the first three days (EVA object with DIAZINON and GIN3 granules blended 40/60, FIG. 7) [%] | peak of release of LINALOL relative to the bracelet, in absolute value (EVA/PEBAX matrix 30% LINALOL vs PVC bracelet 15% LINALOL, oven 38° C., FIG. 11) [times]
1 | CCOP(=S)(OCC)Oc1cc(C)nc(C(C)C)n1 [DIAZINON] | 1.30 | 28 | 
2 | C=CC(C)(O)CCC=C(C)C (stereo not drawn) [LINALOL] |  |  | 16
